Patent publication US12509460B2 (Skyhawk Therapeutics, Inc., priority 2019, dated 2025)
Several values for one entry are separate records, joined by “and”; a condition that tells them apart may be missing. Identical values can stand only once. Like-named read-outs stand apart in the source and are kept apart here.

What was measured:
[1] = Quantitative splicing assay (HTT), qPCR; assay type: cell-based, human; conditions: Homo sapiens, GM04724, 24 h, GM04724 lymphoblasts, read-out: HTT Splicing: E49-50 EC50
Method: Example A9: Quantitative Splicing Assay (HTT)
GM04724 (CAG 70/20) Huntington's disease patient lymphoblasts (Coriell) are plated in 96-well v-bottom plates at 50,000 cells/well. Immediately after plating, cells are dosed with compound for 24 h at concentrations ranging from 2.5 uM to 0.15 nM (0.1% DMSO). Treated cells are lysed and cDNA synthesized using the Fast Advanced Cells-to-Ct kit (Thermofisher A35378) according to the manufacturer's instructions. 2 uL of each cDNA are used in qPCR reactions to confirm the compound-induced inclusion of a cryptic exon within intron 49 of the Huntingtin (HTT) transcripts. The qPCR reactions are prepared in 384-well plates in 10 uL volume, using TagMan™ Fast Advanced Master Mix [ThermoFisher, 4444965] with primers and probes shown in the table below. Reactions are run in a Quant studio 6 qPCR instrument with default settings.

[2] = test system: mHTT protein in GM04724 (CAG 70/20) Huntington's disease patient lymphoblast cells; test: mHTT protein assay, 2B7-MW1 assay via Mesoscale Discovery (MSD); assay type: cell-based, human
Summary of the method: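 Signal from the 2B7-MW1 antibody pair on MSD, rising with polyQ length and smaller HTT fragments, measured mHTT after 48 h compound exposure (0.6 nM–10 μM) in GM04724 cells. A parallel replicate plate gave CellTiter Glo viability.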

[3] = test system: SMN protein in spinal muscular atrophy (SMA) patient fibroblasts (GM03813, Coriell); test: SMN protein assay, Mesoscale Discovery (MSD); assay type: cell-based, human; conditions: for EC50: read-out: SMN2 protein EC50
Summary of the method: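 Absolute SMN levels were quantified by MSD against an SMN protein standard curve (1 μg/ml to 19.5 pg/ml) run on each plate. Samples were lysates of GM03813 patient fibroblasts (7000 cells/well) treated 48 hours with compound doses from 2.5 μM down to 0.6 nM.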

MDR1 (P-gp) = test: Blood-brain-barrier (BBB) penetration potential via MDCK-MDR1 permeability assay; conditions: dog; for Papp A→B at 120 min, 5 μM: MDCK-MDR1, pH 7.4, MDCK-MDR1: Papp A-B; for Papp B→A at 120 min, 5 μM: MDCK-MDR1, pH 7.4, MDCK-MDR1: Papp B-A
[4] = test system: MDR1-MDCK cell monolayers; test: as above
MDR1 = test: as above; conditions: dog, MDCK-MDR1, pH 7.4, MDCK-MDR1: Efflux
[5] = GM04724 Huntington's disease patient lymphoblasts
[6] = SMA patient fibroblasts GM03813, 48 hours, MSD

SMILES	EC50 ([1]; qPCR) [nM]	EC50 [2, 5] [nM]	EC50 [3, 6] [nM]	Papp A→B at 120 min, 5 μM (MDR1 (P-gp); A-B direction) [×10⁻⁶ cm/s]	Papp B→A at 120 min, 5 μM (MDR1 (P-gp); B-A direction) [×10⁻⁶ cm/s]	MDCK-MDR1: % Recov A-B ([4]; A-B direction)	MDCK-MDR1: % Recov B-A ([4]; B-A direction)	efflux ratio at 120 min, 5 μM (MDR1; efflux ratio)	SMN2 protein EC50 [3, 6]	EC50 [1] [nM]	EC50 ([2]; GM04724 (CAG 70/20) Huntington's disease patient lymphoblasts) [nM]	SMN2 protein EC50 ([3]; SMA patient fibroblasts (GM03813), 48 hours)	Papp A→B at 120 min, 5 μM (MDR1 (P-gp); A-B) [×10⁻⁶ cm/s]	Papp B→A at 120 min, 5 μM (MDR1 (P-gp); B-A) [×10⁻⁶ cm/s]	MDCK-MDR1: % Recov A-B ([4]; A-B) [%]	MDCK-MDR1: % Recov B-A ([4]; B-A) [%]	efflux ratio at 120 min, 5 μM (MDR1)	MDCK-MDR1: Papp A-B ([4]; A-B direction)	MDCK-MDR1: Papp B-A ([4]; B-A direction)	MDCK-MDR1: Efflux ([4]; efflux ratio)
CN(c1ccc(-c2cc(C#N)c(F)cc2O)nn1)[C@H]1C[C@@H]2CC[C@@H](N2)[C@H]1F [Compound 72B, 2-fluoro-5-(6-(((1R,2R,3S,5S)-2-fluoro-8-azabicyclo[3.2.1]octan-3-yl)(methyl)amino)pyridazin-3-yl)-4-hydroxybenzonitrile]	101 to 500	101 to 500	51 to 100	10.9	36.4	78%	74%	3	–	–	–	–	–	–	–	–	–	–	–	–
Cc1cnc(-c2ccc(-c3ccc(N(C)C4CC5CCC(N5)C4F)nn3)c(O)c2)o1 (single isomer, unassigned) [Compound 48B]	16 to 50	16 to 50	0.01 to 15	6.56	24.5	67%	84%	4	–	–	–	–	–	–	–	–	–	–	–	–
CN(c1ccc(-c2cc3ncn(C)c(=O)c3cc2O)nn1)[C@@H]1C[C@H]2CC[C@H](N2)[C@@H]1F [Compound 51A, 7-(6-(((1S,2S,3R,5R)-2-fluoro-8-azabicyclo[3.2.1]octan-3-yl)(methyl)amino)pyridazin-3-yl)-6-hydroxy-3-methylquinazolin-4(3H)-one]	0.01 to 15	0.01 to 15	–	0.81	38	94%	86%	47	E (501 ≤ E ≤ 10.000)	–	–	–	–	–	–	–	–	–	–	–
CN(c1ccc(-c2cc3ccncc3s2)nn1)[C@H]1C[C@@H]2CC[C@@H](N2)[C@H]1F [Compound 65B, (1R,2R,3S,5S)-2-fluoro-N-methyl-N-(6-(thieno[2,3-c]pyridin-2-yl)pyridazin-3-yl)-8-azabicyclo[3.2.1]octan-3-amine]	101 to 500	51 to 100	16 to 50	6.9	54.6	84%	87%	8	–	–	–	–	–	–	–	–	–	–	–	–
CN(c1ccc(-c2ccc(-c3cnn(C)c3)cc2O)nn1)[C@@H]1C[C@H]2CC(F)(F)[C@@H](C1)N2 [Compound 3A, 2-(6-(((1S,3R,5R)-6,6-difluoro-8-azabicyclo[3.2.1]octan-3-yl)(methyl)amino)pyridazin-3-yl)-5-(1-methyl-1H-pyrazol-4-yl)phenol]	0.01 to 15	16 to 50	16 to 50	19.3	33.8	75%	81%	2	–	–	–	–	–	–	–	–	–	–	–	–
CN(c1ccc(-c2ccc(-n3nccn3)cc2O)nn1)[C@H]1C[C@@H]2CCC[C@@H](N2)[C@H]1F [Compound 5B, 2-(6-(((1R,2R,3S,5S)-2-fluoro-9-azabicyclo[3.3.1]nonan-3-yl)(methyl)amino)pyridazin-3-yl)-5-(2H-1,2,3-triazol-2-yl)phenol]	0.01 to 15	0.01 to 15	101 to 500	5.84	9.91	30%	52%	2	–	–	–	–	–	–	–	–	–	–	–	–
CN(c1ccc(-c2cc3cnccc3cc2O)nn1)[C@@H]1C[C@H]2CCC[C@H](N2)[C@@H]1F [Compound 121A, 7-(6-(((1S,2S,3R,5R)-2-fluoro-9-azabicyclo[3.3.1]nonan-3-yl)(methyl)amino)pyridazin-3-yl)isoquinolin-6-ol]	–	–	–	–	–	–	–	–	–	51 to 100	16 to 50	E (501 ≤ E ≤ 10.000)	2.65	29.8	81	95	11	–	–	–
CN(c1ccc(-c2ccc(-c3cnn(C)c3)cc2O)nn1)C1CC2COCC(N2)C1F (single isomer, unassigned) [Compound 80A]	51 to 100	51 to 100	101 to 500	4.93	53.6	68%	88%	11	–	–	–	–	–	–	–	–	–	–	–	–
CN(c1ccc(-c2cc3ccncc3s2)nn1)[C@@H]1C[C@H]2CC[C@H](N2)[C@@H]1F [Compound 65A, (1S,2S,3R,5R)-2-fluoro-N-methyl-N-(6-(thieno[2,3-c]pyridin-2-yl)pyridazin-3-yl)-8-azabicyclo[3.2.1]octan-3-amine]	10 to 501	101 to 500	51 to 100	5.82	50.5	94%	93%	9	–	–	–	–	–	–	–	–	–	–	–	–
CN(c1ccc(-c2ccc(-c3nnco3)cc2O)nn1)[C@@H]1C[C@H]2CC[C@H](N2)[C@@H]1F [Compound 44A, 2-(6-(((1S,2S,3R,5R)-2-fluoro-8-azabicyclo[3.2.1]octan-3-yl)(methyl)amino)pyridazin-3-yl)-5-(1,3,4-oxadiazol-2-yl)phenol]	16 to 50	0.01 to 15	101 to 500	8.12	50.9	87%	86%	6	–	–	–	–	–	–	–	–	–	–	–	–
CN(c1ccc(-c2ccc(-c3cnn(C(F)F)c3)cc2O)nn1)[C@@H]1C[C@H]2CC[C@H](N2)[C@@H]1F [Compound 20A, 5-(1-(difluoromethyl)-1H-pyrazol-4-yl)-2-(6-(((1S,2S,3R,5R)-2-fluoro-8-azabicyclo[3.2.1]octan-3-yl)(methyl)amino)pyridazin-3-yl)phenol]	16 to 50	16 to 50	16 to 50	4.68	39.9	47%	71%	9	–	–	–	–	–	–	–	–	–	–	–	–
CN(c1ccc(-c2cc3c(=O)[nH]ccc3s2)nn1)[C@@H]1C[C@H]2CC[C@H](N2)[C@@H]1F [Compound 6A, 2-(6-(((1S,2S,3R,5R)-2-fluoro-8-azabicyclo[3.2.1]octan-3-yl)(methyl)amino)pyridazin-3-yl)thieno[3,2-c]pyridin-4(5H)-one]	10 to 501	–	51 to 100	0.09	6.69	90% and 95%	91% and 82%	74	E (501 ≤ E ≤ 10.000)	–	–	–	–	–	–	–	–	0.06 10^−6, cm/s	7.34 10^−6, cm/s	121
